# Experimental data: ChEMBL document CHEMBL2407027, “(3R,4S,5R,6R,7S)-3,4,5,7-Tetrahydroxyconidine, an azetidine analogue of 6,7-diepicastanospermine and a conformationally constrained d-deoxyaltronojirimycin, from l-arabinose” (Bioorg Med Chem, 2013)
# Key:
# Penicillium decumbens = test: Inhibition of Penicillium decumbens alpha-L-rhamnosidase at 1000 uM
# Helix pomatia = test: Inhibition of snail beta-mannosidase at 1000 uM
# [1] = biological target: T1, Tissue alpha-L-fucosidase (Bos taurus) (UniProt Q2KIM0); test: Inhibition of bovine alpha-L-fucosidase at 1000 uM
# T1 sequence (whole entry): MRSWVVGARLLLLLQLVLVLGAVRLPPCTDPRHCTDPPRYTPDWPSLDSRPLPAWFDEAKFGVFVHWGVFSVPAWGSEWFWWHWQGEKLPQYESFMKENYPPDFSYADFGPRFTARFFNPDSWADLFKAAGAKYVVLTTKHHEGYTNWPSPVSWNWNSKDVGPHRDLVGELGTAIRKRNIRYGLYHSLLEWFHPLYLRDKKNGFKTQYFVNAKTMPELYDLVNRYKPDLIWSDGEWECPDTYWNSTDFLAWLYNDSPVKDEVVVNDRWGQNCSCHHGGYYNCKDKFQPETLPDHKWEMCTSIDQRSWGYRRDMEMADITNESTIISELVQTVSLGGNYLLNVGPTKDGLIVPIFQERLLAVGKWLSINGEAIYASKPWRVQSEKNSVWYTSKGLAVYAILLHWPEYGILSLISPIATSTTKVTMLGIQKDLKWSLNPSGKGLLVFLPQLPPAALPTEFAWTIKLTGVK
# [2] = biological target: T2, Alpha-glucosidase (Aspergillus niger) (UniProt P56526); test: Inhibition of Aspergillus niger alpha-glucosidase at 1000 uM
# T2 sequence (whole entry): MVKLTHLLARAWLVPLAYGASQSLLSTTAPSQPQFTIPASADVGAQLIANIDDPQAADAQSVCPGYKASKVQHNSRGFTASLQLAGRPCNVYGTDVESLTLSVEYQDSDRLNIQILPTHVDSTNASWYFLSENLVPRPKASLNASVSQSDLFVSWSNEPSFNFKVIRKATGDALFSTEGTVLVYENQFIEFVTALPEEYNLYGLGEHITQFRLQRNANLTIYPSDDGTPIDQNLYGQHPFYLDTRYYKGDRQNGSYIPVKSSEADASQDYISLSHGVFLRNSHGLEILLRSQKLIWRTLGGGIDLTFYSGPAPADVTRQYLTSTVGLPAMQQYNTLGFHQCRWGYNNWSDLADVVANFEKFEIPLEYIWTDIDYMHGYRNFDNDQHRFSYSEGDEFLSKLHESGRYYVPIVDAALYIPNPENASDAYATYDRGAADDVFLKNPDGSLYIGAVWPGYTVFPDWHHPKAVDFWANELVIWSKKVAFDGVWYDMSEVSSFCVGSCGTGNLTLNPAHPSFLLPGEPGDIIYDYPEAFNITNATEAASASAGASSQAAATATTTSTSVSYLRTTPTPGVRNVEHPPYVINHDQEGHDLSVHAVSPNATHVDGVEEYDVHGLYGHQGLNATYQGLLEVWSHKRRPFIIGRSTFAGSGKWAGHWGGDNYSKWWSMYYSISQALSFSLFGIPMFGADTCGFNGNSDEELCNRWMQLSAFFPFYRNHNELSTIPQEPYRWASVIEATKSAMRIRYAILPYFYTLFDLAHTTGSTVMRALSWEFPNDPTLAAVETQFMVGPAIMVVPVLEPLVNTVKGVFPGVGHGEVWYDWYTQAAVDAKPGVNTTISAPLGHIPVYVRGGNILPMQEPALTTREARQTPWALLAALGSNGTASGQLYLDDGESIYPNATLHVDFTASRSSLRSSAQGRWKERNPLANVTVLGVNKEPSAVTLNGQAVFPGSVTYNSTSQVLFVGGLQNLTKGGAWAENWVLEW
# Rattus norvegicus [3] = species on record: Rattus norvegicus; test: Inhibition of rat intestinal alpha-glucosidase at 1000 uM
# Saccharomyces cerevisiae = test: Inhibition of yeast alpha-glucosidase at 1000 uM
# Prunus dulcis = test: Inhibition of almond beta-glucosidase at 1000 uM
# [4] = biological target: T3, Glucosylceramidase (Bos taurus) (UniProt Q2KHZ8); test: Inhibition of bovine liver beta-glucosidase at 1000 uM
# T3 sequence (whole entry): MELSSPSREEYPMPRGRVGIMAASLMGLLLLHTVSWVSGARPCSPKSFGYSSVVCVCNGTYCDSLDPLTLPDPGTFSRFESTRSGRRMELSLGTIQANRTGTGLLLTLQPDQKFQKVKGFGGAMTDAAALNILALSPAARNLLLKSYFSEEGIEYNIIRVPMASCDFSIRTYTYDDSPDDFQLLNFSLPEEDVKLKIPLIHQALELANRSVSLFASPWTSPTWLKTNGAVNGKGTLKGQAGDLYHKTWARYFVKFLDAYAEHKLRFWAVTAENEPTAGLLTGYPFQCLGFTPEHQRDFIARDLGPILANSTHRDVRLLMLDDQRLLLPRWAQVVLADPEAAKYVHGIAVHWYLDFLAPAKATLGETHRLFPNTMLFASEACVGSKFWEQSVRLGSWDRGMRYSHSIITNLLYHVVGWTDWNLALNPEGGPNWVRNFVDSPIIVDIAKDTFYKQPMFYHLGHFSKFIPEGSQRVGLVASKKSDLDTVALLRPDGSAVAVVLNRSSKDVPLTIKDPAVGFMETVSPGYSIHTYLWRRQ
# Aspergillus niger [5] = test: Inhibition of Aspergillus niger amyloglucosidase at 1000 uM
# [6] = biological target: T4, Beta-galactosidase (Bos taurus) (UniProt Q58D55); test: Inhibition of bovine liver beta-galactosidase at 1000 uM
# T4 sequence (whole entry): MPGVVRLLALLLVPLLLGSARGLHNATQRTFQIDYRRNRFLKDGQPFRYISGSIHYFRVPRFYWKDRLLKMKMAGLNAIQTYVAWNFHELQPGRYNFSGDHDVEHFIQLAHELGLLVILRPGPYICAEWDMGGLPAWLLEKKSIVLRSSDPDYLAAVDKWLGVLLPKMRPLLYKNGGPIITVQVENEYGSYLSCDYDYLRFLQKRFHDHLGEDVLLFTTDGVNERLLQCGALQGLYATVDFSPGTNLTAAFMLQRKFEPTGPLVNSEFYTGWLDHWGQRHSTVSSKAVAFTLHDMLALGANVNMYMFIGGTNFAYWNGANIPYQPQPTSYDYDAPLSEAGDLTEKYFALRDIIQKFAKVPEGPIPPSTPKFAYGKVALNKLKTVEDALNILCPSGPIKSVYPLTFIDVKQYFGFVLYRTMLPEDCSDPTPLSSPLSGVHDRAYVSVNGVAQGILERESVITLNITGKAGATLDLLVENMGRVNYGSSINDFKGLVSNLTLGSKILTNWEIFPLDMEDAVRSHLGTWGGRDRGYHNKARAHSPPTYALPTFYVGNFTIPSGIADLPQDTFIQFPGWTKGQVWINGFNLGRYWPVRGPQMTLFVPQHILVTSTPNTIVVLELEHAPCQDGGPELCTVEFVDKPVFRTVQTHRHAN
# Escherichia coli = test: Inhibition of Escherichia coli beta-glucuronidase at 1000 uM
# Rhizopus = test: Inhibition of rhizopus amyloglucosidase at 1000 uM
# [7] = biological target: T5, Beta-glucuronidase (Bos taurus) (UniProt A3KMY8); test: Inhibition of bovine liver beta-glucuronidase at 1000 uM
# T5 sequence (whole entry): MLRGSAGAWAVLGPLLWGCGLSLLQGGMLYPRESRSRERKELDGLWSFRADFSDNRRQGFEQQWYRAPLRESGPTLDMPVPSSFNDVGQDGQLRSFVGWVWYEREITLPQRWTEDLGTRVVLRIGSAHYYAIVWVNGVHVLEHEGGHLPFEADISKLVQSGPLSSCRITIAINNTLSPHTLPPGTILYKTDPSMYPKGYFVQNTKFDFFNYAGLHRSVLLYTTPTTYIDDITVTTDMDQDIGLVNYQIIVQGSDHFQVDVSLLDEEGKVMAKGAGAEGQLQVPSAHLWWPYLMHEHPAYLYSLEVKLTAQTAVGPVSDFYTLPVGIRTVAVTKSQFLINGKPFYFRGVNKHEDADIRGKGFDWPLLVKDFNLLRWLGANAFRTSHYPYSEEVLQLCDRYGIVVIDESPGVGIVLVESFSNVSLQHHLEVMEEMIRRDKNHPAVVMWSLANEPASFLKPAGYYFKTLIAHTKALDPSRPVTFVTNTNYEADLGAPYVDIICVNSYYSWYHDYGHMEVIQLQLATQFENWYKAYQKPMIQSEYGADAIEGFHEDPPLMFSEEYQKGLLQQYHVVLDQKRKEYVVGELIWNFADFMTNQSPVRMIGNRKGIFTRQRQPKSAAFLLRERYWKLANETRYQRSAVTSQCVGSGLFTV
# Aspergillus niger [8] = test: Inhibition of Aspergillus niger beta-glucosidase at 1000 uM
# Sus scrofa = species on record: Sus scrofa; test: Inhibition of porcine kidney alpha,alpha-trehalase at 1000 uM
# Coffea = test: Inhibition of coffee beans alpha-galactosidase at 1000 uM
# Oryza sativa = test: Inhibition of rice alpha-glucosidase at 1000 uM
# Rattus norvegicus [9] = species on record: Rattus norvegicus; test: Inhibition of rat intestinal beta-galactosidase at 1000 uM
# [10] = biological target: T6, Tissue alpha-L-fucosidase (Bos taurus, UniProt Q2KIM0); test: Inhibition of bovine alpha-L-fucosidase
# T6 sequence (Q2KIM0 whole entry): T1 sequence (whole entry)
# [11] = Inhibition of rhizopus amyloglucosidase
# Alpha-glucosidase = biological target: T7, Alpha-glucosidase (Aspergillus niger, UniProt P56526); test: Inhibition of Aspergillus niger alpha-glucosidase
# T7 sequence (P56526 whole entry): T2 sequence (whole entry)
# [12] = Inhibition of Aspergillus niger amyloglucosidase
# [13] = Inhibition of Penicillium decumbens alpha-L-rhamnosidase
# [14] = Inhibition of rat beta-galactosidase
# [15] = Inhibition of almond beta-glucosidase; design: species or system Prunus dulcis
# [16] = Inhibition of rat intestinal alpha-glucosidase
inhibition (Penicillium decumbens),inhibition (Helix pomatia),inhibition [2],inhibition (Saccharomyces cerevisiae),inhibition (Aspergillus niger [5]),inhibition [6],inhibition (Escherichia coli),inhibition [7],inhibition (Aspergillus niger [8]),inhibition (Sus scrofa),inhibition (Coffea),inhibition (Oryza sativa),inhibition (Rattus norvegicus [9]),Compound,inhibition [1],inhibition (Rattus norvegicus [3]),inhibition (Prunus dulcis),inhibition [4],IC50 [11],IC50 [12],further results
11.1%,0%,0%,3.1%,3%,13.4%,8.9%,4.2%,1.2%,5.2%,0%,2.7%,0%,O=C1CC[C@H](O)[C@H]2[C@@H](O)CN12,0%,25.2%,0%,14.9%,–,–,inhibition (Rhizopus): 3.8%
2.1%,0%,19.1%,1.4%,5%,19.9%,0%,7.4%,1.8%,2.1%,20.5%,7.2%,44.6%,OC[C@H]1NC[C@@H](O)[C@H](O)[C@@H]1O,–,24.2%,18.8%,10.9%,–,–,IC50 [10]: 194 µM; inhibition (Rhizopus): 7%
–,–,–,–,–,–,–,–,–,–,–,–,–,O[C@H]1[C@H](O)[C@@H](O)CN2CC[C@H](O)[C@H]12 [CASTANOSPERMINE],–,–,–,–,–,8 µM,–
–,–,–,–,–,–,–,–,–,–,–,–,–,O[C@H]1[C@H](O)CN2CCCC[C@H]12 [(-)-LENTIGINOSINE],–,–,–,–,–,32 µM,–
–,0%,–,16%,–,25.2%,0%,7.4%,0.4%,5.8%,7.6%,12.1%,–,OC[C@H](O)[C@@H]1NC[C@@H]1O,4.6%,–,–,–,19 µM,105 µM,IC50 (Alpha-glucosidase): 39 µM; IC50 [14]: 70 µM; IC50 [15]: 347 µM; IC50 [16]: 607 µM; IC50 [13]: 634 µM
–,–,–,–,–,–,–,–,–,–,–,–,–,O[C@@H]1[C@H](O)[C@H]2[C@@H](O)CCN2C[C@H]1O,–,–,–,–,–,8 µM,–

Compound,inhibition (Penicillium decumbens),inhibition (Helix pomatia),inhibition [2],inhibition (Saccharomyces cerevisiae),inhibition (Aspergillus niger [5]),inhibition [6],inhibition (Escherichia coli),inhibition [7],inhibition (Aspergillus niger [8]),inhibition (Sus scrofa),inhibition (Coffea),inhibition (Oryza sativa),inhibition (Rattus norvegicus [9]),inhibition [1],inhibition (Rattus norvegicus [3]),inhibition (Prunus dulcis),inhibition [4],IC50 [11],IC50 [12],further results
O[C@H]1CCCN2C[C@H](O)[C@H]12,–,0%,–,1.6%,–,14%,13.2%,0%,0%,1%,8.4%,0%,32.2%,0%,14.3%,0%,9.7%,243 µM,930 µM,IC50 (Alpha-glucosidase): 307 µM; IC50 [13]: 117 µM
"O[C@@H]1[C@H](O)[C@H]2[C@@H](O)CN2C[C@H]1O [(3R,4S,5R,6R,7S)-3,4,5,7-TETRAHYDROXYCONIDINE]",2%,0%,47.3%,0%,31.3%,43.4%,0%,7.8%,1.8%,9%,3.5%,13.8%,–,2%,30.3%,31.1%,18.9%,532 µM,–,IC50 [14]: 418 µM
